Where only a bound is given, the exact number is not on record here.

Test [1] addresses T1, TBK1 (Homo sapiens, UniProt Q9UHD2).
T1 construct: His-tag; made in house; host or cells: Sf9 insect cells
T1 sequence (Q9UHD2 1-729): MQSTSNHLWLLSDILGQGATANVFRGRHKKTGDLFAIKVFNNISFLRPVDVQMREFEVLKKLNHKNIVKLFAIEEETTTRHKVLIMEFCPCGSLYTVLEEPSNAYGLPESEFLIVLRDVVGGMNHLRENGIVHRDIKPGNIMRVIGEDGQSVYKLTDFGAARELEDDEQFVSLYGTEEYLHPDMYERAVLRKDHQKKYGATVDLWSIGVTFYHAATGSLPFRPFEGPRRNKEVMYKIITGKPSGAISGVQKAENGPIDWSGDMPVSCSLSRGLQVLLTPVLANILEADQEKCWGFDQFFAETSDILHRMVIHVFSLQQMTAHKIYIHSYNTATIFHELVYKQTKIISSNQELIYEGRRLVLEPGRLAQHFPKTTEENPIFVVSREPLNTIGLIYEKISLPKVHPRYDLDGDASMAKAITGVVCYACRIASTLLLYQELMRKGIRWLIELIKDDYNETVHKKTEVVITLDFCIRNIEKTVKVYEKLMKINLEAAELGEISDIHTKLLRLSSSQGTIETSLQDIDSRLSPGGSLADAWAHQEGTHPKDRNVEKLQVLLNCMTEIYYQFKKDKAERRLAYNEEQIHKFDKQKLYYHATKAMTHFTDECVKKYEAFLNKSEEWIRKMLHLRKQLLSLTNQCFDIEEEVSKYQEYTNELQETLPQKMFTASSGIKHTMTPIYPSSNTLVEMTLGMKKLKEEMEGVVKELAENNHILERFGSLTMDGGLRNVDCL
In words: In-vitro TBK1 kinase assay ([γ33]ATP filter-plate). The class given is biochemical. The note with it: text bins; read-out: IC50 for inhibition of the kinase activity of TBK1. The procedure, abridged:
(§1)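 His-tagged IKKε and TBK1 from Sf9 cells were assayed with myelin basic protein or casein and [γ33]ATP at 2×Km ATP (32 μM for IKKε, 60 μM for TBK1). Enzyme was 0.1 or 0.015 μg/ml for IKKε and 0.1 or 0.02 μg/ml for TBK1 (normal/sensitized). Reactions ran 30-45 min, were filter-captured, scintillation-counted, and normalized to DMSO after background subtraction.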

Test [2] deals with T2, IKKε (Homo sapiens, UniProt Q14164).
T2 construct: His-tag; made in house; host or cells: Sf9 insect cells
T2 sequence (Q14164 1-716): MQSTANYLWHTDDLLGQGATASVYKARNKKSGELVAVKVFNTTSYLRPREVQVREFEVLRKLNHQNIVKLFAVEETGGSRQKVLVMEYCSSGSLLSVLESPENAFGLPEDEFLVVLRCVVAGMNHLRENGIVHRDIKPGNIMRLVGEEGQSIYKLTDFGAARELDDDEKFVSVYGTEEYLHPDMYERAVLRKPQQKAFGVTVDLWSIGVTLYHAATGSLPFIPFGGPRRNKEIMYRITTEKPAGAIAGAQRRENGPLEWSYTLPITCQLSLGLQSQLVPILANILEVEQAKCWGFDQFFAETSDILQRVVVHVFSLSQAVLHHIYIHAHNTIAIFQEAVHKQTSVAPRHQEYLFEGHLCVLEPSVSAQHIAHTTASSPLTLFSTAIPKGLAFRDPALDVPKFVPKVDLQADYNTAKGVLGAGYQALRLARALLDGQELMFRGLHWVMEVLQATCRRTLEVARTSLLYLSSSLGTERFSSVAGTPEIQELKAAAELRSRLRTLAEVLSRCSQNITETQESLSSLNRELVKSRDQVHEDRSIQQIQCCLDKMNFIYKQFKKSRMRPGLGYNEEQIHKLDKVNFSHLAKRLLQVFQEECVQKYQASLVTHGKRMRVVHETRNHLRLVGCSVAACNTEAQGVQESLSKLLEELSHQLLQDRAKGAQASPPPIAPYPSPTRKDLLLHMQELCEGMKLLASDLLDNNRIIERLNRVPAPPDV
Description: In-vitro IKKε kinase assay ([γ33]ATP filter-plate). The class given is biochemical. As to conditions: text bins; read-out: IC50 for inhibition of the kinase activity of IKKε. Summed up:
as §1

For `COc1cc(Nc2nccc(-c3ccc(OCCO)c(C#N)c3)n2)ccc1N1CCNC(=O)C1` [compound 296, 2-(2-Hydroxyethoxy)-5-(2-{[3-methoxy-4-(3-oxopiperazin-1-yl)phenyl]amino}pyrimidin-4-yl)benzonitrile], the IC50 is under 10 nM in test [1] and 5 to 50 nM in test [2].
In the same order, the values of `COc1ccc(-c2ccnc(Nc3ccc(N4CCN(C)CC4)cc3)n2)cc1C#N` [compound 297, 2-Methoxy-5-(2-{[4-(4-methylpiperazin-1-yl)phenyl]amino}pyrimidin-4-yl)benzonitrile] are under 10 nM and 5 to 50 nM.
Turning to `COc1ccc(-c2ccnc(Nc3ccc(OC4CCN(C)CC4)c(OC)c3)n2)cc1C#N` [compound 302, 2-Methoxy-5-[2-({3-methoxy-4-[(1-methylpiperidin-4-yl)oxy]phenyl}amino)pyrimidin-4-yl]benzonitrile], the IC50 in test [1] was in the range of 10 to 100 nM; in test [2] it was 5 to 50 nM.
In the case of `COc1ccc(-c2ccnc(Nc3ccc(S(=O)(=O)NCCCO)c(OC)c3)n2)cc1C#N` [compound 303, 4-{[4-(3-Cyano-4-methoxyphenyl)pyrimidin-2-yl]amino}-N-(3-hydroxypropyl)-2-methoxybenzene-sulfonamide], the IC50 lay in the range of 10 to 100 nM in test [1] and 5 to 50 nM in test [2].
Take `COc1cc(Nc2nccc(-c3ccc(OC)c(C#N)c3)n2)cc(C(=O)O)c1` [compound 305]: the IC50 in test [1] was 10 to 100 nM; in test [2] it was 5 to 50 nM.
As to `COc1cc(Nc2nccc(-c3ccc(OC4CCOCC4)c(C#N)c3)n2)ccc1C(N)=O` [compound 311, 4-({4-[3-cyano-4-(tetrahydro-2H-pyran-4-yloxy)phenyl]pyrimidin-2-yl}amino)-2-methoxybenzamide], the IC50 is under 10 nM in test [1] and under 5 nM in test [2].
In the case of `COc1ccc(-c2ccnc(Nc3ccc(N4CCS(=O)(=O)CC4)cc3)n2)cc1C#N` [compound 313], the figures for the IC50 in test [1] and in test [2] were 10 to 100 nM and 5 to 50 nM, respectively.
In the same order, the values of `COc1ccc(-c2ccnc(Nc3cccc(OCCN4CCOCC4)c3)n2)cc1C#N` [compound 314, 2-Methoxy-5-[2-({3-[2-(morpholin-4-yl)ethoxy]phenyl}amino)pyrimidin-4-yl]benzonitrile] are 10 to 100 nM and 5 to 50 nM.
For the molecule `COc1cc(NC(=O)NCCCO)cc(Nc2nccc(-c3ccc(OC)c(C#N)c3)n2)c1` [compound 315, 1-(3-{[4-(3-Cyano-4-methoxyphenyl)pyrimidin-2-yl]amino}-5-methoxyphenyl)-3-(3-hydroxypropyl)urea], the IC50 in test [1] is under 10 nM; in test [2], 5 to 50 nM.
With `COc1ccc(Nc2nccc(-c3cccc(C#N)c3)n2)cc1Cl` [compound 318, 3-{2-[(3-Chloro-4-methoxyphenyl)amino]pyrimidin-4-yl}benzonitrile], the IC50 in test [1] is 10 to 100 nM; in test [2] it was 5 to 50 nM.
With `COc1cc(NC(=O)NCCCN)cc(Nc2nccc(-c3ccc(OC)c(C#N)c3)n2)c1` [compound 320, 1-(3-Aminopropyl)-3-(3-{[4-(3-cyano-4-methoxyphenyl)pyrimidin-2-yl]amino}-5-methoxyphenyl)urea], the IC50 in test [1] lay within 10 to 100 nM; in test [2], 50 to 500 nM.
Consider `N#Cc1cccc(-c2ccnc(Nc3ccc(N4CCOCC4)cc3)n2)c1` [compound 322, 3-(2-{[4-(Morpholin-4-yl)phenyl]amino}pyrimidin-4-yl)benzonitrile], for which the IC50 in test [1] is 10 to 100 nM; in test [2], 50 to 500 nM.
For `COC(=O)c1ccc(Nc2nccc(-c3ccc(OC4CCN(C(=O)[C@H](C)O)CC4)c(C#N)c3)n2)cc1OC` [compound 324, methyl 4-({4-[3-cyano-4-({1-[(2S)-2-hydroxypropanoyl]piperidin-4-yl}oxy)phenyl]pyrimidin-2-yl}amino)-2-methoxybenzoate] the same measures were 10 to 100 nM and 5 to 50 nM.
In the same order, the values of `COc1cc(Nc2nccc(-c3ccc(O)c(C#N)c3)n2)ccc1N1CCNC(=O)C1` [compound 326, 2-Hydroxy-5-(2-{[3-methoxy-4-(3-oxopiperazin-1-yl)phenyl]amino}pyrimidin-4-yl)benzonitrile] are under 10 nM and under 5 nM.
In the same order, the values of `COc1ccc(Nc2nccc(-c3ccc(OC)c(C#N)c3)n2)cc1Cl` [compound 327, 5-{2-[(3-Chloro-4-methoxyphenyl)amino]pyrimidin-4-yl}-2-methoxybenzonitrile] are 10 to 100 nM and 5 to 50 nM.
For the molecule `N#Cc1cc(-c2ccnc(Nc3ccc(N4CCOCC4)c(C4CC4)c3)n2)ccc1OC1CCOCC1` [compound 329, 5-(2-{[3-cyclopropyl-4-(morpholin-4-yl)phenyl]amino}pyrimidin-4-yl)-2-(tetrahydro-2H-pyran-4-yloxy)benzonitrile], the IC50 in test [1] is under 10 nM; in test [2] it was under 5 nM.
For `C[C@H](O)C(=O)N1CCC(Oc2ccc(-c3ccnc(Nc4ccc(C(=O)N(C)CCN(C)C)cc4)n3)cc2C#N)CC1` [compound 331, 4-({4-[3-cyano-4-({1-[(2S)-2-hydroxypropanoyl]piperidin-4-yl}oxy)phenyl]pyrimidin-2-yl}amino)-N-[2-(dimethylamino)ethyl]-N-methylbenzamide] the same measures were under 10 nM and under 5 nM.
For the molecule `COc1cc(NC(=O)NC2CCCC2)cc(Nc2nccc(-c3ccc(OC)c(C#N)c3)n2)c1` [compound 332, 1-(3-{[4-(3-Cyano-4-methoxyphenyl)pyrimidin-2-yl]amino}-5-methoxyphenyl)-3-cyclopentylurea], the IC50 was in the range of 10 to 100 nM in test [1] and 5 to 50 nM in test [2].
For `CC(C)Oc1ccc(-c2ccnc(Nc3ccc(N4CCN(C)CC4)cc3)n2)cc1C#N` [compound 335, 5-(2-{[4-(4-Methylpiperazin-1-yl)phenyl]amino}pyrimidin-4-yl)-2-(propan-2-yloxy)benzonitrile] the same measures were under 10 nM and under 5 nM.
For `COc1ccc(-c2ccnc(Nc3ccc(CN4CCN(C)CC4)cc3)n2)cc1C#N` [compound 337, 2-Methoxy-5-[2-({4-[(4-methylpiperazin-1-yl)methyl]phenyl}amino)pyrimidin-4-yl]benzonitrile] the same measures were 10 to 100 nM and 5 to 50 nM.
For `COc1ccc(-c2ccnc(Nc3cc(OC)c(OC)c(OC)c3)n2)cc1C#N` [compound 341, 2-methoxy-5-{2-[(3,4,5-trimethoxyphenyl)amino]pyrimidin-4-yl}benzonitrile] the same measures were under 10 nM and under 5 nM.
Take `COC(=O)c1ccc(Nc2nccc(-c3ccc(OC4CCN(C(=O)[C@H](C)O)CC4)c(C#N)c3)n2)cc1` [compound 342, methyl 4-({4-[3-cyano-4-({1-[(2S)-2-hydroxypropanoyl]piperidin-4-yl}oxy)phenyl]pyrimidin-2-yl}amino)benzoate]: the IC50 in test [1] is under 10 nM; in test [2], 5 to 50 nM.
For `COc1cc(NC(=O)NC[C@@H](C)O)cc(Nc2nccc(-c3ccc(OC)c(C#N)c3)n2)c1` [compound 343, 1-(3-{[4-(3-Cyano-4-methoxyphenyl)pyrimidin-2-yl]amino}-5-methoxyphenyl)-3-[(2R)-2-hydroxypropyl]urea] the same measures were under 10 nM and 5 to 50 nM.
In the same order, the values of `COc1cc(NC(=O)NC2CCN(C(C)=O)CC2)cc(Nc2nccc(-c3ccc(OC)c(C#N)c3)n2)c1` [compound 344, 1-(1-Acetylpiperidin-4-yl)-3-(3-{[4-(3-cyano-4-methoxyphenyl)pyrimidin-2-yl]amino}-5-methoxyphenyl)urea] are 10 to 100 nM and 5 to 50 nM.

By IC50 is commonly meant the concentration at which inhibition is half-maximal.

For the origin of these results see patent US20150352108A1, “AMINO-PYRIMIDINE COMPOUNDS AS INHIBITORS OF TBK1 AND/OR IKK EPSILON” (Alzheimer's Institute of America, priority 2009, published 2015).
